# Data from patent US20230285498A1, “TREATMENTS FOR CANCERS HAVING KRAS MUTATIONS” (City of Hope, priority 2020, published 2023).
# Like-named read-outs stand apart in the source and are kept apart here.
# Columns and labels:
# [1] = test system: SW1573; experiment: Drug combination synergy assay (inhibition matrix); assay type: cell-based; details: Homo sapiens, read-out: inhibition of cell growth
# Method: The synergy finder codes were used to determine the synergy between drugs for 48 possible combinations. The codes were run using the R-platform and synergy was calculated and represented as the synergy landscape.
# Drug Combination Synergy Assay: For combination index (CI) calculation, SW1573 and H23 incured cell lines were seeded in 96-well plate with 5000 cells per well. Three biological replicates (three 96-well plates for each drug combination) were used. […] The drugs were used in linear dilution series with dilution factor of 2. […] Further, R package called SynergyFinder (He et al., 2018) was used to find the nature of drug-drug interaction (i.e. if they work in synergy or antagonistically or non-interactively). For this purpose, the drug response matrix is supplied to the mentioned package, which then uses several models namely Highest Single Agent (Berenbaum, 1989), Loewe additivity (Loewe, 1953), Bliss independence (Bliss, 1939) and Zero Interaction Potency (Yadav et al., 2015) to quantify the degree of drug synergy. The dose response matrix was used to calculate individual CI values for IC30, IC50 and IC70 drug treatments. The output values were used to plot isobolograms using the following formula. CI=IC50 (A) pair IC50 (A)+IC50 (B) pair IC50 (B)
# [2] = test system: H23; experiment: Cell proliferation assay, 2D (IncuCyte live cell imaging); assay type: cell-based
# Method: (§1) The cells grown in 2D cultures were treated with various concentrations of the drug, and the effect on cell proliferation was determined in real time using the live cell proliferation assay (IncuCyte, Essen Bioscience, Inc.) as described in the methods.
# (§2) Cell proliferation and apoptosis assay: Cell proliferation assays were performed using cell lines stably transfected with NucLight Red Lentivirus (Essen BioScience) to accurately visualize and count the nucleus of a single cell. Cells were seeded on a 96-well plate and allowed to adhere for 24 h. Test compounds were added at indicated concentrations. Caspase-3/7 Green Apoptosis Reagent (Essen BioScience) was also added as a green fluorescent indicator of caspase3/7-mediated apoptotic activity. To monitor cell proliferation and apoptosis over time, the plate was placed in the IncuCyte S3 Live Cell Imaging System (Essen BioScience) and images were acquired every 2 hours. Data analysis was generated by the IncuCyte software using a red fluorescence mask to accurately count each cell nucleus and a green fluorescence mask to measure apoptosis over time. 3D spheroid assay 3D spheroid experiments were performed using cell lines stably transfected with NucLight Red Lentivirus (Essen BioScience) to visualize red fluorescence as an indicator of cell viability. Cells were seeded on a 96-well ultra-low attachment plate and allowed to form spheroids overnight. Drug treatment was added as indicated along with Cytotox Green Reagent (Essen BioScience), used as a green fluorescence indicator of cell death due to loss of cell membrane integrity. To monitor cell proliferation and apoptosis over time, the plate was placed in the IncuCyte S3 Live Cell Imaging System (Essen BioScience) and images were acquired every 2 hours. Data analysis was generated by the IncuCyte software using a red fluorescence mask to accurately measure intensity and area of red fluorescence, indicating spheroid viability and a green fluorescence mask, indicating cell death. Cell cycle analysis.
# [3] = test system: H358; experiment: as above; assay type: cell-based; details: Homo sapiens, NCI-H358
# Method: as §1, §2
# [4] = test system: SW1573 cells; experiment: Protein array of global phosphorylation changes; assay type: cell-based; details: IC50 concentration; 72 hours
# Method: The phosphorylation changes were analyzed employing the AVM BioMed protein array platform.
# [5] = test system: ITGB4-overexpressing H23 cells; experiment: Cell proliferation, ITGB4-overexpressing cells; assay type: cell-based; details: Homo sapiens, NCI-H23
# [6] = test system: SW1573 NSCLC cells; experiment: Mouse SW1573 xenograft; assay type: in vivo, Athymic nude nu/nu mice; details: sotorasib 10 mg/kg, adagrasib 10 mg/kg, carfilzomib 2 mg/kg; oral gavage twice a week; day 56
# Method: Mouse xenograft studies. Athymic nude nu/nu mice were obtained from Charles River, Wilmington, Mass., and were acclimated for a week before beginning the experiment. All animal experiments were carried out in accordance with a protocol approved by the Institutional Animal Care and Use Committee (IACUC #16004). […] All 40 animals were injected with 1×10^6 SW1573 cells suspensions in 100 μl of PBS, subcutaneously into one flank of each mouse. At the same time, animals were randomized into treatment groups. Treatment was started 12 days after the SW1573 NSCLC cells implantation to see palpable tumor growth. Treatments were given to mice via oral gavage twice a week for 8 weeks. Animals were examined daily for signs of tumor growth. Tumors were measured in two dimensions using calipers and body weights were recorded. Photographs of animals were taken at day 1, day 7, day 14, day 21, day 28, day 35, day 42, day 49, and day 56 after treatment. Photographs of tumors were also taken at day 56 after treatment. At the end of the study, the mice were euthanized by CO2 asphyxiation followed by cervical dislocation. The tumor weights were compared between groups using an unpaired Student's t-test. A portion of the tumor was fixed in 10% buffered formaldehyde solution and paraffin-embedded for immuno-staining or was snap-frozen in liquid nitrogen for further molecular analysis such as western blotting.
# [7] = test system: SW1573 spheroids; experiment: 3D spheroid assay; assay type: cell-based
# Method: (§3) The activation of apoptosis is marked with the increase in green fluorescence intensity.
# (§4) To determine the sensitivities of the same cells in 3D, mKate expressing cells were used to generate spheroids. Spheroids were monitored in real time using the IncuCyte live cell imaging system (FIG. 1B).
# as §2
# [8] = test system: H23 spheroids; experiment: 3D spheroid assay; assay type: cell-based
# Method: as §3, §4, §2
# [9] = test system: H358 spheroids; experiment: 3D spheroid assay; assay type: cell-based
# Method: as §3, §4, §2
compound,measurement,setting,value
C=CC(=O)N1CCN(c2nc(=O)n(-c3c(C)ccnc3C(C)C)c3nc(-c4c(O)cccc4F)c(F)cc23)[C@@H](C)C1 [sotorasib],inhibition at 16 µM,[1],~10%
same,cell count,"[2]; H23, 1-3 μM, 24 h, start 9,000, control 15,000","12,000"
same,IC50,"[2]; Homo sapiens, NCI-H23, 72 h, H23, 72 hours, Example 6",3 µM
same,IC50,"[2]; Homo sapiens, NCI-H23, H23, Example 1, FIG. 14C-14D",3.2 µM
same,inhibition at 0.3 µM,"[2]; Homo sapiens, NCI-H23, H23, 0.3 μM",~20%
same,inhibition at 10 µM,"[2]; Homo sapiens, NCI-H23, H23, 72 hours, read-out: inhibition of proliferation / cell growth",~80%
same,inhibition at 5 µM,"[2]; Homo sapiens, NCI-H23, H23 parental cells, 5 μM, FIG. 4B, read-out: inhibition of proliferation",50%
same,inhibition at 10 µM,"[2]; Homo sapiens, NCI-H23, H23 parental cells, FIG. 4B, read-out: inhibition of proliferation",70%
same,IC50,[3],63 nM
same,inhibition at 0.61 µM,"[3]; H358, 0.61 μM",~60%
same,IC50,"[3]; H358, 72 hours, Example 6, read-out: IC50, cell proliferation",130 nM
same,IC50,"[3]; H358, Example 1, FIG. 14C-14D, read-out: IC50, cell proliferation",800 nM
same,number of proteins with phosphorylation changes unique to the treatment,[4],1482 proteins
same,number of proteins with significant phosphorylation changes,[4],1764 proteins
same,inhibition at 10 µM,[5],5%
same,reduction in tumor area,[6],about 52%
same,inhibition at 0.3 µM,"[7]; Homo sapiens, SW1573, 0.3 μM, read-out: inhibition of spheroid area",30%
same,inhibition at 10 µM,"[7]; Homo sapiens, SW1573, 10 μM, read-out: inhibition of spheroid area / reduction in spheroid growth",~40%
same,IC50,"[7]; Homo sapiens, SW1573 spheroid, read-out: IC50 in cell line derived spheroid",12.6 µM
same,spheroid red intensity dropped to,"[7]; SW1573, 10 μM",70%
same,drop in spheroid red intensity,"[8]; H23, 0.3 μM",about 40%
same,inhibition at 0.3 µM,"[8]; H23, 0.3 μM, read-out: inhibition of spheroid area",70%
same,spheroid red intensity dropped to,"[8]; H23, 10 μM",80%
same,IC50,"[8]; H23 spheroid, read-out: IC50 in cell line derived spheroid",12.3 µM
same,drop in spheroid red intensity,"[9]; H358, 0.3 μM",about 80%
same,inhibition at 0.3 µM,"[9]; Homo sapiens, NCI-H358, H358, 0.3 μM, read-out: inhibition of spheroid area",90%
same,IC50,"[9]; Homo sapiens, NCI-H358, H358 spheroid, read-out: IC50 in cell line derived spheroid",2.2 nM
